From patent US20190161807A1, “RAD51C as a Human Cancer Susceptibility Gene” (Heinrich-Heine-Universität Düsseldorf, priority 2010, published 2019)

Test system: RAD51C bi-allelic mutated cells
Assay: Toxicity of PARP inhibitor / topoisomerase I inhibitor exposure in cells with reduced or absent RAD51C function (FIG. 5, FIG. 6)
Format: cell-based
Conditions: RAD51C bi-allelic mutated cells vs normal cells, mono-allelic RAD51C mutated cells and RAD51C-complemented cells

SMILES	sensitivity (toxicity) of cells towards exposure to the topoisomerase I inhibitor (FIG. 6, means±SD, n=4)	sensitivity (toxicity) of cells towards exposure to the PARP inhibitor (FIG. 5, means±SD, n=3)
CC[C@@]1(O)C(=O)OCc2c1cc1n(c2=O)Cc2cc3ccccc3nc2-1 [camptothecin]	increased toxicities	
CN(C)CC(=O)Nc1ccc2[nH]c(=O)c3ccccc3c2c1 [PJ34]		increased toxicities
